25 molecules from ChEMBL document CHEMBL5223141, “New cycloalkyl[b]thiophenylnicotinamide-based α-glucosidase inhibitors as promising anti-diabetic agents: Synthesis, in silico study, in vitro and in vivo evaluations” (Bioorg Med Chem Lett, 2023) can be followed below.

Series [1] deals with L02. As to the kind of experiment: Cytotoxicity against human L02 cells at 100 uM by MTT assay. Conditions: l02, 100 µM. Type of series: toxicity, cell-based. In general terms: Formazan colour is commonly taken as a measure of viable cells.
Series [2] addresses Maltase-glucoamylase (Homo sapiens) (UniProt O43451). As to the kind of experiment: Inhibition of alpha-glucosidase (unknown origin) at 100 uM relative to control.
Series [3] deals with HepG2. Description: Cytotoxicity against human HepG2 cells at 100 uM by MTT assay. The series is classed as toxicity, cell-based. As to conditions: hepg2, 100 µM.
The species named for series [4] is Homo sapiens. Description: Selectivity ratio of IC50 for alpha-amylase (unknown origin) to IC50 for alpha-glucosidase (unknown origin).
The target in series [5] is T1, Alpha amylase (Homo sapiens, UniProt P0DUB6).
T1 sequence (P0DUB6 whole entry): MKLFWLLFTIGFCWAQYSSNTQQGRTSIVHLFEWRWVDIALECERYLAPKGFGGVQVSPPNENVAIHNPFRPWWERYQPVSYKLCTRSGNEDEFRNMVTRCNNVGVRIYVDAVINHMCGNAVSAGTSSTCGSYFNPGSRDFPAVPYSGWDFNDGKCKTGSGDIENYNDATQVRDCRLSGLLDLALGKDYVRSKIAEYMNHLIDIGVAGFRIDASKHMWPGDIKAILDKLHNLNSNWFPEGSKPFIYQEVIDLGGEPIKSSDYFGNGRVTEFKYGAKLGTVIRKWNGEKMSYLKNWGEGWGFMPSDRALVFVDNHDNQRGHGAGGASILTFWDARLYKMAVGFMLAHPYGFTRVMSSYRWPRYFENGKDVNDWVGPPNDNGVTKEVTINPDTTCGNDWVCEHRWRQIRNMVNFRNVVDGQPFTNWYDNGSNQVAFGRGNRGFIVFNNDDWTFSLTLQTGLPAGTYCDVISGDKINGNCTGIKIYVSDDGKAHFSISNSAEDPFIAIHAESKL
Description: Inhibition of alpha-amylase (unknown origin).

Series [6] relates to Rattus norvegicus. As to the kind of experiment: Anti-hyperglycemic activity in sucrose loaded Sprague-Dawley rat assessed as decrease in blood glucose level at 5 mg/kg, po measured after 45 mins by oral sucrose tolerance test. The series is classed as functional. As to conditions: 0.75 h.
The test system of series [7] is Rattus norvegicus. Description: Anti-hyperglycemic activity in sucrose loaded Sprague-Dawley rat assessed as blood glucose level at 5 mg/kg, po measured at 30 mins by oral sucrose tolerance test (reference value: 10.80+/-0.92 mmol/L). The series is classed as functional. As to conditions: 0.5 h.
The target in series [8] is Maltase-glucoamylase (Homo sapiens) (UniProt O43451). Description: Mixed type inhibition of alpha-glucosidase (unknown origin) assessed as decrease in Vmax by measuring increase in slope using pNPG as substrate at upto 25 uM by Lineweaver-Burk plot analysis.
Series [9] has the same target. As to the kind of experiment: Mixed type inhibition of alpha-glucosidase (unknown origin) assessed as increase in Km by measuring increase in intercept using pNPG as substrate at upto 25 uM by Lineweaver-Burk plot analysis.
Series [10] shares this target. Description: Inhibition of alpha-glucosidase (unknown origin) assessed as increase in intrinsic fluorescence emission. Conditions: dose 0-100 µM.

The source made the active and inactive calls. The calls are words filed in the database; no cut-off is given here.

Sequence of Maltase-glucoamylase (Homo sapiens) (O43451 whole entry, looked up): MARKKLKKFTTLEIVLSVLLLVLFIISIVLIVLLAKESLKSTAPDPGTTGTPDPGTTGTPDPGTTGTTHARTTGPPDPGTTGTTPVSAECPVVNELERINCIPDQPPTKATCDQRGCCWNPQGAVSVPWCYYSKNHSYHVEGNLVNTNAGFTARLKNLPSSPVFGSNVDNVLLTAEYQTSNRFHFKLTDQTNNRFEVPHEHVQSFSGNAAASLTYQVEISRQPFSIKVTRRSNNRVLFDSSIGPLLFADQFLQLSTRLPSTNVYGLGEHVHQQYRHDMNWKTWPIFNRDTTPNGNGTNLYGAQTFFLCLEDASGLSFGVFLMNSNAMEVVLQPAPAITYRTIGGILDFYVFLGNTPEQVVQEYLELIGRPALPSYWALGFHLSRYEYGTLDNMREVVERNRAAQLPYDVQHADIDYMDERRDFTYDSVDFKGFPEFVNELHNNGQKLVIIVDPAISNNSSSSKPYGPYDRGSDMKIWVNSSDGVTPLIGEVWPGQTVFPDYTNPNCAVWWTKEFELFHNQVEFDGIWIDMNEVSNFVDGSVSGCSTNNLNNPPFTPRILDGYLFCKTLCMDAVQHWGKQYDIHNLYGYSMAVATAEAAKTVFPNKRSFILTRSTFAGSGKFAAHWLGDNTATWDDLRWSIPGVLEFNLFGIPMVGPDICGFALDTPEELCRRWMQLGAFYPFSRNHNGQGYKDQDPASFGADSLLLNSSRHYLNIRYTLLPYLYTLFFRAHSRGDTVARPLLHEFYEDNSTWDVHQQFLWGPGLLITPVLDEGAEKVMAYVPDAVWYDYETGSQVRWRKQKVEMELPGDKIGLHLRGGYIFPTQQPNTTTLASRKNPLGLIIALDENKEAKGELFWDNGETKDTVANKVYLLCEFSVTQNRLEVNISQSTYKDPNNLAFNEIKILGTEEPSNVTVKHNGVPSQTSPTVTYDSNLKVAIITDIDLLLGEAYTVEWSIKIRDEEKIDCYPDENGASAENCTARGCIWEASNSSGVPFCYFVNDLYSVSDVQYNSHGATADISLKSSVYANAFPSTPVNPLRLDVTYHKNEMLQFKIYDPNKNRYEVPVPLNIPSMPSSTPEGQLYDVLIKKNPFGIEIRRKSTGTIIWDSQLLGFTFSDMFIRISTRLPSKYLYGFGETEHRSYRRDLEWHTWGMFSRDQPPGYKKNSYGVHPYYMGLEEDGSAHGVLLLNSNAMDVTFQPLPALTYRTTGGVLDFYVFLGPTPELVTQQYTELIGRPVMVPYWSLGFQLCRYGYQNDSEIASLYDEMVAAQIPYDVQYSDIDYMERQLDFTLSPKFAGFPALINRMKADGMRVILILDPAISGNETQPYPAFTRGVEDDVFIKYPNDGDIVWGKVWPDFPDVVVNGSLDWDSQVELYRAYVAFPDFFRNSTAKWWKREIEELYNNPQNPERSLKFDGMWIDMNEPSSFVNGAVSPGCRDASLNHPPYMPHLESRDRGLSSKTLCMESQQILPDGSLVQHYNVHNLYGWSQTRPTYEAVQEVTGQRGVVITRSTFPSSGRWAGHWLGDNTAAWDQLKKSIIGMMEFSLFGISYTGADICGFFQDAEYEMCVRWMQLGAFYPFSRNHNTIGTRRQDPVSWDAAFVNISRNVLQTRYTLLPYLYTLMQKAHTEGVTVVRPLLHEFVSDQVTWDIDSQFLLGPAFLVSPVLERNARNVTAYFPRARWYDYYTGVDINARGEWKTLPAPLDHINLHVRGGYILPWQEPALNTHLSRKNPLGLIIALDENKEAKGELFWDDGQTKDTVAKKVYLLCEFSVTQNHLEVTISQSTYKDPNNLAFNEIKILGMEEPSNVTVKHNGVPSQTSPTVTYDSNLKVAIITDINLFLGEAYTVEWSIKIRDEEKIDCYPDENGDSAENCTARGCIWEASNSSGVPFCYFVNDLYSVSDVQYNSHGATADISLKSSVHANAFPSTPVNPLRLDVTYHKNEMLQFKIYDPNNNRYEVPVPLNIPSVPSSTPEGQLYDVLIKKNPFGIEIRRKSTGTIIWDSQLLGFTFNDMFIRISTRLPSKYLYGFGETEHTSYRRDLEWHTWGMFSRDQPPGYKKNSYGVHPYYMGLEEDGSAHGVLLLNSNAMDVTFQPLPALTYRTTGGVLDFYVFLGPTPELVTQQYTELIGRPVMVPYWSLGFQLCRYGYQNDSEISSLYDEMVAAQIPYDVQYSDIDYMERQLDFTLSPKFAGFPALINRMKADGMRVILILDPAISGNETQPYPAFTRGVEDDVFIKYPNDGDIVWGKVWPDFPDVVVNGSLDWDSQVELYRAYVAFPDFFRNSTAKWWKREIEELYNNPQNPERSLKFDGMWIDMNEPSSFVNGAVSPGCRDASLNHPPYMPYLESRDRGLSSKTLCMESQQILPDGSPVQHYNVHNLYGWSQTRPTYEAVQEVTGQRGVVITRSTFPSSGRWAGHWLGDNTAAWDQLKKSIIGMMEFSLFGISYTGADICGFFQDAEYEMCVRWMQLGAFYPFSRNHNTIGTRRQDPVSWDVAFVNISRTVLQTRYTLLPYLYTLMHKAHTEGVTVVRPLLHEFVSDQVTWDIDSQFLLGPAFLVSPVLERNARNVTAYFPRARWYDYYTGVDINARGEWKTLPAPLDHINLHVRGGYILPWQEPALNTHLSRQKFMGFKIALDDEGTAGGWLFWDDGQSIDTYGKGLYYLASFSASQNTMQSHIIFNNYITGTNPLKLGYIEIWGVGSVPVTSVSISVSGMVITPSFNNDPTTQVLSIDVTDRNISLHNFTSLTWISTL

Broadly, the inhibition is the change of the read-out against control, counted positive when it falls. On to `O=C(Nc1sc2c(c1C(=O)NCc1ccccc1)CCC2)c1cccnc1`, for which the Activity result in series [1] and in series [3] was “Non-Toxic” throughout. The inhibition in series [2] worked out at 56.6%.
`COc1ccc(CNC(=O)c2c(NC(=O)c3cccnc3)sc3c2CCCCC3)cc1` came in with an inhibition in series [2] of 44.1%.
Turning to `O=C(Nc1sc2c(c1C(=O)NCc1cccnc1)CCC2)c1cccnc1`, the Activity entry in [1] and in [3] was “Non-Toxic” each time. The molecule also yielded an inhibition in series [2] of 12.5%.
In series [2], `O=C(Nc1sc2c(c1C(=O)NCc1ccncc1)CCCC2)c1cccnc1` returned an inhibition of 44.1%.
As for `O=C(Nc1sc2c(c1C(=O)NCc1ccncc1)CCC2)c1cccnc1`, the Activity entry in series [1] and in series [3] was “Non-Toxic” each time. Moreover, the inhibition in [2] stood at 1.1%.
`COc1cc2c(cc1OC)CN(C(=O)c1c(NC(=O)c3cccnc3)sc3c1CCCCC3)CC2`: the inhibition in [2] was 29.1%.
Consider `O=C(Nc1sc2c(c1C(=O)NCc1ccccn1)CCC2)c1cccnc1`, for which the Activity result in series [1] and in series [3] was “Non-Toxic” each time. Further, the inhibition in series [2] was determined as 30.5%.
On to `O=C(Nc1sc2c(c1C(=O)NCc1ccncc1)CCCCC2)c1cccnc1`, for which, in series [2], the inhibition stood at 9.2%.
Take `COC(=O)c1ccc(CNC(=O)c2c(NC(=O)c3cccnc3)sc3c2CCC3)cc1`: the Activity result in series [1] and in series [3] was “Non-Toxic” throughout. The inhibition in series [2] is 21.9%.
On to `COC(=O)c1ccc(CNC(=O)c2c(NC(=O)c3cccnc3)sc3c2CCCCC3)cc1`, for which, in series [2], the inhibition was determined as 18.1%.
Still for that read-out and setting: to `COc1cc2c(cc1OC)CN(C(=O)c1c(NC(=O)c3cccnc3)sc3c1CCCC3)CC2` belongs 42.2%.
As usually defined, the IC50 is the midpoint of a concentration-inhibition curve. Higher therefore signals weaker potency. `O=C(Nc1sc2c(c1C(=O)NCc1ccccc1)CCCC2)c1cccnc1`: the Ratio IC50 in series [4] is 1.7. Further, the Activity entry in series [1] and in series [3] was “Non-Toxic” each time. The IC50 in series [5] stood at 76.1 µM. Further, the inhibition in series [2] amounted to 64.4%.
As for `C[C@H]1O[C@H](O[C@H]2[C@H](O)[C@@H](O)[C@@H](O[C@H]3[C@H](O)[C@@H](O)C(O)O[C@@H]3CO)O[C@@H]2CO)[C@H](O)[C@@H](O)[C@@H]1N[C@H]1C=C(CO)[C@@H](O)[C@H](O)[C@H]1O` (stereo partly drawn) [ACARBOSE], the Activity result is recorded as “Non-Toxic” in [1], “Non-Toxic” in [3], 9.89 mmol/L in series [6] and 9.57 mmol/L in series [7].
Turning to `COc1cc(CNC(=O)c2c(NC(=O)c3cccnc3)sc3c2CCCCC3)ccc1O`, in series [2], the inhibition came out at 81.7%.
On to `COc1ccc(CNC(=O)c2c(NC(=O)c3cccnc3)sc3c2CCCC3)cc1`, for which, in series [4], the Ratio IC50 is 2.7. The Activity entry in [1] and in [3] was “Non-Toxic” in each case. Besides, in series [5], the IC50 was determined as 80.4 µM. In addition, in [2], the inhibition was 78.1%.
For `O=C(Nc1sc2c(c1C(=O)NCc1cccnc1)CCCC2)c1cccnc1`, the Ratio IC50 in series [4] came to 0.9. Also, the Activity result in series [1] and in [3] was “Non-Toxic” throughout. This molecule also yielded a concentration for half-maximal inhibition (IC50) in [5] of 48.1 µM. Moreover, the inhibition in series [2] turned out to be 62.7%.
`COC(=O)c1ccc(CNC(=O)c2c(NC(=O)c3cccnc3)sc3c2CCCC3)cc1`: the Ratio IC50 in [4] was determined as 0.8. The Activity entry in series [1] and in series [3] was “Non-Toxic” each time. In [5], this molecule yielded an IC50 of 66.9 µM. For the same molecule, in [2], the inhibition worked out at 58.2%.
For the molecule `COc1ccc(CNC(=O)c2c(NC(=O)c3cccnc3)sc3c2CCC3)cc1`, the Activity entry in series [1] and in series [3] was “Non-Toxic” throughout. The inhibition in [2] turned out to be 55.4%.
As for `COc1cc(CNC(=O)c2c(NC(=O)c3cccnc3)sc3c2CCCC3)ccc1O`, the Ratio IC50 in series [4] was 7.4. Besides, the Activity entry in [1] was “Non-Toxic”; in series [3], “Non-Toxic”; in [6], 9.9 mmol/L; in series [7] it was 9.73 mmol/L; in [10] it was “Dose-Dependent Effect”. Besides, the IC50 in series [5] turned out to be 72.9 µM. In series [2], this molecule showed an inhibition of 93.6%. The outcome in [8] and in series [9] was Active.
As for `COc1cc(CNC(=O)c2c(NC(=O)c3cccnc3)sc3c2CCC3)ccc1O`, the Activity result in series [1] and in [3] was “Non-Toxic” each time. Further, the inhibition in series [2] was 50.6%.
Consider `O=C(Nc1sc2c(c1C(=O)NCc1ccccn1)CCCC2)c1cccnc1`, for which the Ratio IC50 in series [4] amounted to 1.5. Besides, the Activity entry in series [1] and in series [3] was “Non-Toxic” throughout. Moreover, the IC50 in series [5] was found to be 94.8 µM. The molecule also yielded an inhibition in series [2] of 57.2%.
Molecule `O=C(Nc1sc2c(c1C(=O)NCc1cccnc1)CCCCC2)c1cccnc1` yielded an inhibition in [2] of 26.5%.
On to `O=C(Nc1sc2c(c1C(=O)NCc1ccccn1)CCCCC2)c1cccnc1`, for which the inhibition in series [2] was found to be 26.8%.
Consider `COc1cc2c(cc1OC)CN(C(=O)c1c(NC(=O)c3cccnc3)sc3c1CCC3)CC2`, for which the Activity entry in series [1] and in series [3] was “Non-Toxic” throughout. The same molecule yielded an inhibition in series [2] of 23.2%.
In series [2], `O=C(Nc1sc2c(c1C(=O)NCc1ccccc1)CCCCC2)c1cccnc1` showed an inhibition of 59%.
